ChEMBL document CHEMBL1201861, “Genomics of Drug Sensitity in Cancer screening data, Wellcome Trust Sanger Institute”

Legend:
Assay in all cases: cells
HCC1569 = type: functional, cell-based, Homo sapiens; settings: Homo sapiens, HCC1569;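 also: growth inhibition of human HCC1569 cells, read out with a cell viability assay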
Description: SANGER: Inhibition of human HCC1569 cell growth in a cell viability assay.

EW-24 = type: functional, cell-based; settings: Homo sapiens;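 also: human EW-24 cancer cell line, growth inhibition read out via a cell viability assay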
Description: SANGER: Inhibition of human EW-24 cell growth in a cell viability assay.

A-431 = type: functional, cell-based, Homo sapiens; settings: Homo sapiens, A-431;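 also: growth inhibition of A-431 cells, determined with a cell viability read-out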
Description: SANGER: Inhibition of human A431 cell growth in a cell viability assay.

NCI-H358 = type: functional, cell-based, Homo sapiens; settings: Homo sapiens, NCI-H358;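 also: growth inhibition of NCI-H358 human cells, read out with a cell viability assay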
Description: SANGER: Inhibition of human NCI-H358 cell growth in a cell viability assay.

OS-RC-2 = type: functional, cell-based, Homo sapiens; settings: Homo sapiens, OS-RC-2;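 also: growth inhibition of human OS-RC-2 cells, measured by a cell viability assay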
Description: SANGER: Inhibition of human OS-RC-2 cell growth in a cell viability assay.

EKVX = type: functional, cell-based, Homo sapiens; settings: Homo sapiens, EKVX;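 also: growth inhibition of human EKVX cells, read out with a cell viability assay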
Description: SANGER: Inhibition of human EKVX cell growth in a cell viability assay.

GCIY = type: functional, cell-based, Homo sapiens; settings: Homo sapiens, GCIY;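 also: growth inhibition of the human GCIY cell line, read out by a cell viability assay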
Description: SANGER: Inhibition of human GCIY cell growth in a cell viability assay.

SiHa = type: functional, cell-based, Homo sapiens; settings: Homo sapiens, SiHa;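 also: Viability-based readout of growth inhibition in SiHa cells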
Description: SANGER: Inhibition of human SiHa cell growth in a cell viability assay.

GP5d = type: functional, cell-based, Homo sapiens; settings: Homo sapiens, GP5d;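 also: growth inhibition of human GP5d cells, read out with a cell viability assay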
Description: SANGER: Inhibition of human GP5d cell growth in a cell viability assay.

NCI-H1395 = type: functional, cell-based, Homo sapiens; settings: Homo sapiens, NCI-H1395;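 also: cell viability assay read-out quantifying reduced proliferation of human NCI-H1395 cells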
Description: SANGER: Inhibition of human NCI-H1395 cell growth in a cell viability assay.

CP50-MEL-B = type: functional, cell-based, Homo sapiens; settings: Homo sapiens, CP50-MEL-B;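 also: growth inhibition of the human cell line, measured with a cell viability read-out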
Description: SANGER: Inhibition of human CP50-MEL-B cell growth in a cell viability assay.

NCI-H2087 = type: functional, cell-based, Homo sapiens; settings: Homo sapiens, NCI-H2087;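 also: growth inhibition determined with a cell viability readout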
Description: SANGER: Inhibition of human NCI-H2087 cell growth in a cell viability assay.

WM-115 = type: functional, cell-based, Homo sapiens; settings: Homo sapiens, WM-115
Description: SANGER: Inhibition of human WM-115 cell growth in a cell viability assay.

CAL-62 = type: functional, cell-based, Homo sapiens; settings: Homo sapiens, CAL-62;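 also: growth inhibition of CAL-62 cells, read out with a cell viability assay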
Description: SANGER: Inhibition of human CAL-62 cell growth in a cell viability assay.

RH-1 = type: functional, cell-based, Homo sapiens; settings: Homo sapiens, RH-1;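 also: growth inhibition of human RH-1 cells, read out with a cell viability assay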
CWR22R = type: functional, cell-based, Homo sapiens; settings: Homo sapiens, 22Rv1;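 also: growth inhibition of 22Rv1 cells, read out with a cell viability assay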
Description: SANGER: Inhibition of human 22RV1 cell growth in a cell viability assay.

HH = type: functional, cell-based; settings: Homo sapiens
Description: SANGER: Inhibition of human HH cell growth in a cell viability assay.

SW872 = type: functional, cell-based, Homo sapiens; settings: Homo sapiens, SW872;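 also: growth inhibition of SW872 cells, read out by a viability assay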
Description: SANGER: Inhibition of human SW872 cell growth in a cell viability assay.

MDA-MB-415 = type: functional, cell-based; settings: Homo sapiens
ATN-1 = type: functional, cell-based; settings: Homo sapiens;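 also: growth inhibition of human ATN-1 cells, read out with a cell viability assay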
Description: SANGER: Inhibition of human ATN-1 cell growth in a cell viability assay.

C-33-A = type: functional, cell-based, Homo sapiens; settings: Homo sapiens, C-33-A;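 also: cell viability assay measuring growth inhibition of C-33-A cells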
Description: SANGER: Inhibition of human C-33-A cell growth in a cell viability assay.

SW1573 = type: functional, cell-based, Homo sapiens; settings: Homo sapiens, SW1573;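 also: growth inhibition of SW1573 cells, read out with a cell viability assay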
Description: SANGER: Inhibition of human SW1573 cell growth in a cell viability assay.

S-117 = type: functional, cell-based, Homo sapiens; settings: Homo sapiens, S-117
Description: SANGER: Inhibition of human S-117 cell growth in a cell viability assay.

SH-4 = type: functional, cell-based, Homo sapiens; settings: Homo sapiens, SH-4;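 also: growth inhibition of SH-4 cells, read out with a cell viability assay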
Description: SANGER: Inhibition of human SH-4 cell growth in a cell viability assay.

SK-N-AS = type: functional, cell-based, Homo sapiens; settings: Homo sapiens, SK-N-AS;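 also: growth inhibition of human SK-N-AS cells, measured with a cell viability assay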
Description: SANGER: Inhibition of human SK-N-AS cell growth in a cell viability assay.

COLO-679 = type: functional, cell-based, Homo sapiens; settings: Homo sapiens, COLO-679
Description: SANGER: Inhibition of human COLO-679 cell growth in a cell viability assay.

no-11 = type: functional, cell-based, Homo sapiens; settings: Homo sapiens;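 also: growth inhibition of human NO-11 cells, read out with a cell viability assay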
Description: SANGER: Inhibition of human no-11 cell growth in a cell viability assay.

IST-MES1 = type: functional, cell-based, Homo sapiens; settings: Homo sapiens, IST-MES1;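 also: growth inhibition of IST-MES1 cells, measured with a cell viability assay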
Description: SANGER: Inhibition of human IST-MES1 cell growth in a cell viability assay.

ES7 = type: functional, cell-based, Homo sapiens; settings: Homo sapiens, ES7;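 also: growth inhibition of cultured human ES7 cells, read out as cell viability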
Description: SANGER: Inhibition of human ES7 cell growth in a cell viability assay.

BE-13 = type: functional, cell-based; settings: Homo sapiens;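 also: growth inhibition of human BE-13 cells, measured with a cell viability assay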
Description: SANGER: Inhibition of human BE-13 cell growth in a cell viability assay.

LAN-6 = type: functional, cell-based, Homo sapiens; settings: Homo sapiens, LAN-6;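 also: growth inhibition of LAN-6 cells, determined with a cell viability assay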
Description: SANGER: Inhibition of human LAN-6 cell growth in a cell viability assay.

TGBC24TKB = type: functional, cell-based, Homo sapiens; settings: Homo sapiens, TGBC24TKB;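 also: growth inhibition of human TGBC24TKB cells, read out with a cell viability assay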
Description: SANGER: Inhibition of human TGBC24TKB cell growth in a cell viability assay.

LoVo = type: functional, cell-based; settings: Homo sapiens;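 also: growth inhibition of human LoVo cells, read out with a cell viability assay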
Description: SANGER: Inhibition of human LoVo cell growth in a cell viability assay.

A704 = type: functional, cell-based, Homo sapiens; settings: Homo sapiens, A704;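 also: growth inhibition of human A704 cells, read out with a cell viability assay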
Description: SANGER: Inhibition of human A704 cell growth in a cell viability assay.

CCRF-CEM = type: functional, cell-based; settings: Homo sapiens;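 also: inhibition of CCRF-CEM cell growth, measured by a cell viability assay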
Description: SANGER: Inhibition of human CCRF-CEM cell growth in a cell viability assay.

NKM-1 = type: functional, cell-based; settings: Homo sapiens;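 also: growth inhibition of NKM-1 cells, read out with a cell viability assay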
MG-63 = type: functional, cell-based, Homo sapiens; settings: Homo sapiens, MG-63;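 also: growth inhibition of human MG-63 cells, read out with a cell viability assay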
Description: SANGER: Inhibition of human MG-63 cell growth in a cell viability assay.

KLE = type: functional, cell-based, Homo sapiens; settings: Homo sapiens, KLE;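 also: growth inhibition of human KLE cells, read out with a cell viability assay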
Description: SANGER: Inhibition of human KLE cell growth in a cell viability assay.

ESS-1 = type: functional, cell-based, Homo sapiens; settings: Homo sapiens, ESS-1;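 also: growth inhibition of human ESS-1 cells, read out by a cell viability assay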
Description: SANGER: Inhibition of human ESS-1 cell growth in a cell viability assay.

NCI-H2347 = type: functional, cell-based, Homo sapiens; settings: Homo sapiens, NCI-H2347;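 also: growth inhibition of the cell line, read out with a cell viability assay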
Description: SANGER: Inhibition of human NCI-H2347 cell growth in a cell viability assay.

RKO = type: functional, cell-based, Homo sapiens; settings: Homo sapiens, RKO;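 also: growth inhibition of human RKO cells, read out with a cell viability assay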
CAL-33 = type: functional, cell-based, Homo sapiens; settings: Homo sapiens, CAL-33;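 also: growth inhibition of CAL-33 cells, read out with a cell viability assay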
Description: SANGER: Inhibition of human CAL-33 cell growth in a cell viability assay.

NCI-H82 = type: functional, cell-based; settings: Homo sapiens;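 also: growth inhibition of NCI-H82 cells, measured with a cell viability readout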
Description: SANGER: Inhibition of human NCI-H82 cell growth in a cell viability assay.

Lu-65 = type: functional, cell-based; settings: Homo sapiens;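 also: growth inhibition of Lu-65 cancer cells, read out by a cell viability assay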
Description: SANGER: Inhibition of human LU-65 cell growth in a cell viability assay.

KYSE-270 = type: functional, cell-based, Homo sapiens; settings: Homo sapiens, KYSE-270;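 also: cell growth inhibition measured with a viability assay in the human KYSE-270 line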
Description: SANGER: Inhibition of human KYSE-270 cell growth in a cell viability assay.

LB1047-RCC = type: functional, cell-based, Homo sapiens; settings: Homo sapiens, LB1047-RCC;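 also: inhibition of cell growth, determined with a cell viability assay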
Description: SANGER: Inhibition of human LB1047-RCC cell growth in a cell viability assay.

UACC-257 = type: functional, cell-based, Homo sapiens; settings: Homo sapiens, UACC-257
Description: SANGER: Inhibition of human UACC-257 cell growth in a cell viability assay.

D-392MG = type: functional, cell-based, Homo sapiens; settings: Homo sapiens, D-392MG
NCI-H596 = type: functional, cell-based, Homo sapiens; settings: Homo sapiens, NCI-H596;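 also: growth inhibition of NCI-H596 cells, read out with a cell viability assay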
Description: SANGER: Inhibition of human NCI-H596 cell growth in a cell viability assay.

NCI-H292 = type: functional, cell-based, Homo sapiens; settings: Homo sapiens, NCI-H292;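 also: growth inhibition of NCI-H292 cells, read out with a cell viability assay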
Description: SANGER: Inhibition of human NCI-H292 cell growth in a cell viability assay.

COR-L105 = type: functional, cell-based, Homo sapiens; settings: Homo sapiens, COR-L105;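 also: cell growth inhibition determined with a viability assay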
Description: SANGER: Inhibition of human COR-L105 cell growth in a cell viability assay.

KG-1 = type: functional, cell-based; settings: Homo sapiens;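 also: growth inhibition of KG-1 cells, read out by a cell viability assay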

CN(c1ncccc1CNc1nc(Nc2ccc3c(c2)CC(=O)N3)ncc1C(F)(F)F)S(C)(=O)=O [PF-00562271]
IC50 (HCC1569): > 2560 nM | IC50 (EW-24): > 2560 nM | IC50 (A-431): > 2560 nM | IC50 (NCI-H358): > 2560 nM | IC50 (OS-RC-2): > 2560 nM | IC50 (EKVX): > 2560 nM | IC50 (GCIY): > 2560 nM | IC50 (SiHa): > 2560 nM | IC50 (GP5d): > 2560 nM | IC50 (NCI-H1395): > 2560 nM | IC50 (CP50-MEL-B): > 2560 nM | IC50 (NCI-H2087): > 2560 nM | IC50 (WM-115): > 2560 nM | IC50 (CAL-62): 1320 nM | IC50 (RH-1): > 2560 nM | IC50 (CWR22R): > 2560 nM | IC50 (HH): > 2560 nM | IC50 (SW872): > 2560 nM | IC50 (MDA-MB-415): > 2560 nM | IC50 (ATN-1): > 2560 nM | IC50 (C-33-A): > 2560 nM | IC50 (SW1573): > 2560 nM | IC50 (S-117): > 2560 nM | IC50 (SH-4): > 2560 nM | IC50 (SK-N-AS): > 2560 nM | IC50 (COLO-679): > 2560 nM | IC50 (no-11): > 2560 nM | IC50 (IST-MES1): > 2560 nM | IC50 (ES7): > 2560 nM | IC50 (BE-13): > 2560 nM | IC50 (LAN-6): > 2560 nM | IC50 (TGBC24TKB): > 2560 nM | IC50 (LoVo): > 2560 nM | IC50 (A704): > 2560 nM | IC50 (CCRF-CEM): > 2560 nM | IC50 (NKM-1): 1280 nM | IC50 (MG-63): 806 nM | IC50 (KLE): > 2560 nM | IC50 (ESS-1): > 2560 nM | IC50 (NCI-H2347): > 2560 nM | IC50 (RKO): > 2560 nM | IC50 (CAL-33): 1130 nM | IC50 (NCI-H82): > 2560 nM | IC50 (Lu-65): > 2560 nM | IC50 (KYSE-270): 1050 nM | IC50 (LB1047-RCC): > 2560 nM | IC50 (UACC-257): > 2560 nM | IC50 (D-392MG): > 2560 nM | IC50 (NCI-H596): > 2560 nM | IC50 (NCI-H292): > 2560 nM | IC50 (COR-L105): > 2560 nM | IC50 (KG-1): > 2560 nM

Cc1ccc(Nc2nccc(N(C)c3ccc4c(C)n(C)nc4c3)n2)cc1S(N)(=O)=O [PAZOPANIB]
IC50 (HCC1569): > 8000 nM | IC50 (EW-24): > 8000 nM | IC50 (A-431): > 8000 nM | IC50 (NCI-H358): > 8000 nM | IC50 (OS-RC-2): > 8000 nM | IC50 (EKVX): > 8000 nM | IC50 (GCIY): > 8000 nM | IC50 (SiHa): > 8000 nM | IC50 (GP5d): > 8000 nM | IC50 (NCI-H1395): > 8000 nM | IC50 (CP50-MEL-B): > 8000 nM | IC50 (NCI-H2087): > 8000 nM | IC50 (WM-115): 5760 nM | IC50 (CAL-62): > 8000 nM | IC50 (RH-1): > 8000 nM | IC50 (CWR22R): > 8000 nM | IC50 (HH): > 8000 nM | IC50 (SW872): > 8000 nM | IC50 (MDA-MB-415): > 8000 nM | IC50 (ATN-1): > 8000 nM | IC50 (C-33-A): > 8000 nM | IC50 (SW1573): > 8000 nM | IC50 (S-117): 7580 nM | IC50 (SH-4): > 8000 nM | IC50 (SK-N-AS): > 8000 nM | IC50 (COLO-679): > 8000 nM | IC50 (no-11): > 8000 nM | IC50 (IST-MES1): > 8000 nM | IC50 (ES7): > 8000 nM | IC50 (BE-13): > 8000 nM | IC50 (LAN-6): > 8000 nM | IC50 (TGBC24TKB): > 8000 nM | IC50 (LoVo): > 8000 nM | IC50 (A704): 1600 nM | IC50 (CCRF-CEM): > 8000 nM | IC50 (NKM-1): > 8000 nM | IC50 (MG-63): 1000 nM | IC50 (KLE): > 8000 nM | IC50 (ESS-1): 1600 nM | IC50 (NCI-H2347): > 8000 nM | IC50 (RKO): > 8000 nM | IC50 (CAL-33): > 8000 nM | IC50 (NCI-H82): > 8000 nM | IC50 (Lu-65): > 8000 nM | IC50 (KYSE-270): > 8000 nM | IC50 (LB1047-RCC): 3530 nM | IC50 (UACC-257): > 8000 nM | IC50 (D-392MG): > 8000 nM | IC50 (NCI-H596): > 8000 nM | IC50 (NCI-H292): > 8000 nM | IC50 (COR-L105): > 8000 nM | IC50 (KG-1): 718 nM

CN(C)C/C=C/C(=O)Nc1cc2c(Nc3ccc(F)c(Cl)c3)ncnc2cc1O[C@H]1CCOC1 [AFATINIB]
IC50 (HCC1569): > 500 nM | IC50 (EW-24): > 500 nM | IC50 (A-431): 482 nM | IC50 (NCI-H358): > 500 nM | IC50 (OS-RC-2): > 500 nM | IC50 (EKVX): > 500 nM | IC50 (GCIY): > 500 nM | IC50 (SiHa): > 500 nM | IC50 (GP5d): > 500 nM | IC50 (NCI-H1395): > 500 nM | IC50 (CP50-MEL-B): > 500 nM | IC50 (NCI-H2087): > 500 nM | IC50 (WM-115): > 500 nM | IC50 (CAL-62): > 500 nM | IC50 (RH-1): > 500 nM | IC50 (CWR22R): > 500 nM | IC50 (HH): > 500 nM | IC50 (SW872): > 500 nM | IC50 (MDA-MB-415): > 500 nM | IC50 (ATN-1): > 500 nM | IC50 (C-33-A): > 500 nM | IC50 (SW1573): > 500 nM | IC50 (S-117): > 500 nM | IC50 (SH-4): > 500 nM | IC50 (SK-N-AS): > 500 nM | IC50 (COLO-679): > 500 nM | IC50 (no-11): > 500 nM | IC50 (IST-MES1): > 500 nM | IC50 (ES7): > 500 nM | IC50 (BE-13): > 500 nM | IC50 (LAN-6): > 500 nM | IC50 (TGBC24TKB): > 500 nM | IC50 (LoVo): > 500 nM | IC50 (A704): > 500 nM | IC50 (CCRF-CEM): > 500 nM | IC50 (NKM-1): > 500 nM | IC50 (MG-63): > 500 nM | IC50 (KLE): > 500 nM | IC50 (ESS-1): > 500 nM | IC50 (NCI-H2347): > 500 nM | IC50 (RKO): > 500 nM | IC50 (CAL-33): 202 nM | IC50 (NCI-H82): > 500 nM | IC50 (Lu-65): 126 nM | IC50 (KYSE-270): > 500 nM | IC50 (LB1047-RCC): > 500 nM | IC50 (UACC-257): > 500 nM | IC50 (D-392MG): > 500 nM | IC50 (NCI-H596): > 500 nM | IC50 (NCI-H292): 60.9 nM | IC50 (COR-L105): 211 nM | IC50 (KG-1): > 500 nM
